Consider three molecules from ChEMBL document CHEMBL3627608, “Crystal structures of human RIP2 kinase catalytic domain complexed with ATP-competitive inhibitors: Foundations for understanding inhibitor selectivity” (Bioorg Med Chem, 2015).

Experiment [1] concerns the target Ephrin type-A receptor 4 (Homo sapiens) (UniProt P54764). The experiment is described as follows: Inhibition of EPHA4 (unknown origin) at 10 uM after 120 mins P33 radiolabeled kinase activity assay.
For experiment [2], the target named is Serine/threonine-protein kinase OSR1 (Homo sapiens) (UniProt O95747). The experiment is described as follows: Inhibition of OSR1 (unknown origin) at 10 uM after 120 mins P33 radiolabeled kinase activity assay.
Chain of Serine/threonine-protein kinase OSR1 (Homo sapiens) (O95747 2-527 limits assumed): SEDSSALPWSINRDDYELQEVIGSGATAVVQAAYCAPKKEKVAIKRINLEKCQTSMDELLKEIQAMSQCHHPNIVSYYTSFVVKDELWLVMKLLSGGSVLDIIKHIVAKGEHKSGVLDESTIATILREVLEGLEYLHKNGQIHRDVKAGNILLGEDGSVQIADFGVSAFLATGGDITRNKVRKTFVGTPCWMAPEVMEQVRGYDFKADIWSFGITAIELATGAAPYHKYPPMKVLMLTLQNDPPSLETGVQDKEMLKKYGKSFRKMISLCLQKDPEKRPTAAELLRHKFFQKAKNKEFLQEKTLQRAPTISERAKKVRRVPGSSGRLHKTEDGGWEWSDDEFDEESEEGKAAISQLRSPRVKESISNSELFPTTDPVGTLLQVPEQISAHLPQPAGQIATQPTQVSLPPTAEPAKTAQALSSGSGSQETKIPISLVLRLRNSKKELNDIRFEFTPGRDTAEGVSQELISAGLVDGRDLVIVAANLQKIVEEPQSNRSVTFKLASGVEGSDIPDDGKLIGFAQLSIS
The target in experiment [3] is Serine/threonine-protein kinase N2 (Homo sapiens) (UniProt Q16513). The experiment in a line: Inhibition of PKN2 (unknown origin) at 10 uM after 120 mins P33 radiolabeled kinase activity assay.
Chain of Serine/threonine-protein kinase N2 (Homo sapiens) (Q16513 whole entry, looked up): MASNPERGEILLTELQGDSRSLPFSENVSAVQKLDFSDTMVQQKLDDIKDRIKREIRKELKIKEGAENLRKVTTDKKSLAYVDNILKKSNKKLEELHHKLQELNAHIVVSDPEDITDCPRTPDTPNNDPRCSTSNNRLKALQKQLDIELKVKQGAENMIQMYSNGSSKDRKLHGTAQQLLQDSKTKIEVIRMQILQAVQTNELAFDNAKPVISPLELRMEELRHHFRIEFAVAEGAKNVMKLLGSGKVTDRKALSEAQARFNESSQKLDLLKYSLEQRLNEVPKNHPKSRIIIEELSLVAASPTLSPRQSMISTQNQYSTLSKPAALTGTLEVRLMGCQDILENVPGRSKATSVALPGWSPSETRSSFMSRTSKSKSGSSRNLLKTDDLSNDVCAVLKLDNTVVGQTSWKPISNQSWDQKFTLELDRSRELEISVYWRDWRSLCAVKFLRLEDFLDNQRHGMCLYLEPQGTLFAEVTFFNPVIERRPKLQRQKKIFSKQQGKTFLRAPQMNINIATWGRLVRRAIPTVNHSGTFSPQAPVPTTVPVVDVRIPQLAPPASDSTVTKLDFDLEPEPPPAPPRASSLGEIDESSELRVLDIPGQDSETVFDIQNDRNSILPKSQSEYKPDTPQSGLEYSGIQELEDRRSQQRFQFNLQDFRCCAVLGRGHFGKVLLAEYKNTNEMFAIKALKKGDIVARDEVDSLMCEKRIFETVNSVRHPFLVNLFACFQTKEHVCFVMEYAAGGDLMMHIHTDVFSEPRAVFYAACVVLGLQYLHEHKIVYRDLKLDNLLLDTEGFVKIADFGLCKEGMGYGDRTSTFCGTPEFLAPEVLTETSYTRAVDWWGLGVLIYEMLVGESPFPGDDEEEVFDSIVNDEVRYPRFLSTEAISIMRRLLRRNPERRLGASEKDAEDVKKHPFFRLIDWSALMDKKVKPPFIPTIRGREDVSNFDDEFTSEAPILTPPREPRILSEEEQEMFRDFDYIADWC
Experiment [4] addresses Serine/threonine-protein kinase PLK1 (Homo sapiens) (UniProt P53350). The experiment is described as follows: Inhibition of PLK1 (unknown origin) at 10 uM after 120 mins P33 radiolabeled kinase activity assay.
Experiment [5] deals with T1, cAMP-dependent protein kinase catalytic subunit PRKX (Homo sapiens) (UniProt P51817).
T1 sequence (whole entry): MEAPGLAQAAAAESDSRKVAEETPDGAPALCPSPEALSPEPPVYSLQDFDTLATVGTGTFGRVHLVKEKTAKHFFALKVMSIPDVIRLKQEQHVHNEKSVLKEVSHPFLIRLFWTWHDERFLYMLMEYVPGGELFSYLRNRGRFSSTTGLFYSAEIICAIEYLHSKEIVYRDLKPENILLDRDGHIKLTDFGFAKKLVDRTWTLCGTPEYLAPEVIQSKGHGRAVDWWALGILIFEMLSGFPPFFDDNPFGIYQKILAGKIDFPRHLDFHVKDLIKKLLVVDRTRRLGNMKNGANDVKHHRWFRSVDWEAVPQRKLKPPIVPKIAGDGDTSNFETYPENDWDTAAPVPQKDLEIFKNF
The experiment in a line: Inhibition of PRKX (unknown origin) at 10 uM after 120 mins P33 radiolabeled kinase activity assay.

The target of experiment [6] is Proto-oncogene tyrosine-protein kinase receptor Ret (Homo sapiens) (UniProt P07949). The experiment in a line: Inhibition of RET (unknown origin) at 10 uM after 120 mins P33 radiolabeled kinase activity assay.
Chain of Proto-oncogene tyrosine-protein kinase receptor Ret (Homo sapiens) (P07949 whole entry): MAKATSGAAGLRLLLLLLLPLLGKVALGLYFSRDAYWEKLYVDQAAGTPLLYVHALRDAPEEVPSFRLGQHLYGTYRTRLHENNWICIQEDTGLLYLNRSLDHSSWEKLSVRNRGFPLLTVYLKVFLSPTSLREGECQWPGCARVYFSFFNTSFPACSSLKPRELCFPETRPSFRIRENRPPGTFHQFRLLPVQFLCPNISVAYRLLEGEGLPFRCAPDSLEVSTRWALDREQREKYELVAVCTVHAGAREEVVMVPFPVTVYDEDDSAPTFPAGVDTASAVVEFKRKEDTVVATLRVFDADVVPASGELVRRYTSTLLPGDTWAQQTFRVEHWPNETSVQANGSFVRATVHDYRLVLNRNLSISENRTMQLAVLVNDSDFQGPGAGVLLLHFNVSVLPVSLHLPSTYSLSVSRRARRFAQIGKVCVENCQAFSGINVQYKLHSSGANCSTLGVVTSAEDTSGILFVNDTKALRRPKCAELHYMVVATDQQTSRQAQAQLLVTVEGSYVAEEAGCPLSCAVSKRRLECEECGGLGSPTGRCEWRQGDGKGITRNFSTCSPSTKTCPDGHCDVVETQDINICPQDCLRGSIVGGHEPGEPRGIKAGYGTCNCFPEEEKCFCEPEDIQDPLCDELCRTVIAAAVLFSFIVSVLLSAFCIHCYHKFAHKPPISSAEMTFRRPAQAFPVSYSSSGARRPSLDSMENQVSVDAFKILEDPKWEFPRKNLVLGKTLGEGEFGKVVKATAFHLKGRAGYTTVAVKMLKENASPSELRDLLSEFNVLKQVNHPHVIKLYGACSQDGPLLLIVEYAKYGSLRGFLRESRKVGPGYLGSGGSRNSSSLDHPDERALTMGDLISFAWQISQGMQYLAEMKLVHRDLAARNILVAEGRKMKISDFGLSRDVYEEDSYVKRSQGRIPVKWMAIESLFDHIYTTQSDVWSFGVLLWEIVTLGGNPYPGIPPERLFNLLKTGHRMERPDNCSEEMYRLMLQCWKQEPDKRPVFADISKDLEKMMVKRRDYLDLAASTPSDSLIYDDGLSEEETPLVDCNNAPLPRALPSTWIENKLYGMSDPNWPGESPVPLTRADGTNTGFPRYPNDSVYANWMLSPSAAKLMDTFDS
For experiment [7], the target named is T2, Dual serine/threonine and tyrosine protein kinase (Homo sapiens) (UniProt Q6XUX3).
T2 sequence (whole entry): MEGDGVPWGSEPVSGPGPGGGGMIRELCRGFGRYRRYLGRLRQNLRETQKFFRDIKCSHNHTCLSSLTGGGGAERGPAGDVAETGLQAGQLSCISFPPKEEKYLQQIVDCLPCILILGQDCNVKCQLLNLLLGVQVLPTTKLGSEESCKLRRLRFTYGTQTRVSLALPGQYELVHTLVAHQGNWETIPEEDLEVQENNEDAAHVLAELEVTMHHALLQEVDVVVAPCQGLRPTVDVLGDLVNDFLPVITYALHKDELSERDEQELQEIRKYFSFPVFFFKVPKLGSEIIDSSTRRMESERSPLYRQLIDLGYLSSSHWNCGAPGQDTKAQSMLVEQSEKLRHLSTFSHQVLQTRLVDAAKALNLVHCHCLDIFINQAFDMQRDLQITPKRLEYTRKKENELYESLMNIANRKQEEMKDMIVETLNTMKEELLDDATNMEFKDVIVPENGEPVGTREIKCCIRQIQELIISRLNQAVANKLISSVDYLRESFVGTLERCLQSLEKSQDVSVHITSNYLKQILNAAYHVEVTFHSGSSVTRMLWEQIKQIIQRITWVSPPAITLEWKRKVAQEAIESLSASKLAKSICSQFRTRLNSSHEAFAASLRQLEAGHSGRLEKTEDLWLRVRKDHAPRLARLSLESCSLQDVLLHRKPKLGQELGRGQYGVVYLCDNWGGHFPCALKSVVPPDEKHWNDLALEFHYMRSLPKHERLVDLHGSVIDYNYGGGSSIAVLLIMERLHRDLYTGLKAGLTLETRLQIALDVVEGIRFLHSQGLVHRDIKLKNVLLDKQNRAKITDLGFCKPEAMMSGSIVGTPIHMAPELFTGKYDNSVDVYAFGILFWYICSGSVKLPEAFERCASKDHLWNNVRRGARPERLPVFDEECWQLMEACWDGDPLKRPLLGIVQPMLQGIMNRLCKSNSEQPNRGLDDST
The experiment in a line: Inhibition of RIPK5 (unknown origin) at 10 uM after 120 mins P33 radiolabeled kinase activity assay.

Experiment [8] addresses T3, Mitogen-activated protein kinase kinase kinase 7 (Homo sapiens) (UniProt O43318).
T3 sequence (whole entry): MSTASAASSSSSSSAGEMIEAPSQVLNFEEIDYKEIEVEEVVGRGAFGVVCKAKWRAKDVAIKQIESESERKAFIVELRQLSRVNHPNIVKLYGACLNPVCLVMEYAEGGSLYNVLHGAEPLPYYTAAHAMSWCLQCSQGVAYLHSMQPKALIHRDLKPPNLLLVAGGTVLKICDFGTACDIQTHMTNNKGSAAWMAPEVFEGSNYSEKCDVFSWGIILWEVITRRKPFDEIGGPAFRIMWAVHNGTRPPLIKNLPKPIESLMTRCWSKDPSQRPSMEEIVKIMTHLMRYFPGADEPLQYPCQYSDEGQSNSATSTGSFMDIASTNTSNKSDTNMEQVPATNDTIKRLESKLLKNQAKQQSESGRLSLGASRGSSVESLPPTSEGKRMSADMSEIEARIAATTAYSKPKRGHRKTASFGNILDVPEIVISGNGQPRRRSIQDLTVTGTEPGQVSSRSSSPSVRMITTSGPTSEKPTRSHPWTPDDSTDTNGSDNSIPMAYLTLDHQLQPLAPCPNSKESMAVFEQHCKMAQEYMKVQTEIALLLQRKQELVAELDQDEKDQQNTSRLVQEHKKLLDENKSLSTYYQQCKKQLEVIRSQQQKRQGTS
The experiment is described as follows: Inhibition of TAK1 (unknown origin) at 10 uM after 120 mins P33 radiolabeled kinase activity assay.

Experiment [9] deals with T4, TGF-beta receptor type-1 (Homo sapiens) (UniProt P36897).
T4 sequence (whole entry): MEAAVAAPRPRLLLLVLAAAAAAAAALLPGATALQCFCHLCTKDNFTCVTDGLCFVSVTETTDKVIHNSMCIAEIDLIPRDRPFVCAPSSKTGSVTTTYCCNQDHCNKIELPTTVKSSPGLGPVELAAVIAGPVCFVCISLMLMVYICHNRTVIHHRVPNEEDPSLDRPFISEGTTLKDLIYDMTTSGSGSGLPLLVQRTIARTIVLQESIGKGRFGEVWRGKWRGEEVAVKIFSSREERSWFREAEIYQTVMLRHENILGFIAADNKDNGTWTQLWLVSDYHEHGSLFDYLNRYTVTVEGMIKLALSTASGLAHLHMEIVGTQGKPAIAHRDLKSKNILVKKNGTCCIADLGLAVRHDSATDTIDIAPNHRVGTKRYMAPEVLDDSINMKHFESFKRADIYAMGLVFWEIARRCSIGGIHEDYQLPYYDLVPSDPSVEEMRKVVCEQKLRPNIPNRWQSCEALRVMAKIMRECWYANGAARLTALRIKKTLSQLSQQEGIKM
The experiment in a line: Inhibition of ALK5 (unknown origin) at 10 uM after 120 mins P33 radiolabeled kinase activity assay.

Chain of Serine/threonine-protein kinase PLK1 (Homo sapiens) (P53350 whole entry): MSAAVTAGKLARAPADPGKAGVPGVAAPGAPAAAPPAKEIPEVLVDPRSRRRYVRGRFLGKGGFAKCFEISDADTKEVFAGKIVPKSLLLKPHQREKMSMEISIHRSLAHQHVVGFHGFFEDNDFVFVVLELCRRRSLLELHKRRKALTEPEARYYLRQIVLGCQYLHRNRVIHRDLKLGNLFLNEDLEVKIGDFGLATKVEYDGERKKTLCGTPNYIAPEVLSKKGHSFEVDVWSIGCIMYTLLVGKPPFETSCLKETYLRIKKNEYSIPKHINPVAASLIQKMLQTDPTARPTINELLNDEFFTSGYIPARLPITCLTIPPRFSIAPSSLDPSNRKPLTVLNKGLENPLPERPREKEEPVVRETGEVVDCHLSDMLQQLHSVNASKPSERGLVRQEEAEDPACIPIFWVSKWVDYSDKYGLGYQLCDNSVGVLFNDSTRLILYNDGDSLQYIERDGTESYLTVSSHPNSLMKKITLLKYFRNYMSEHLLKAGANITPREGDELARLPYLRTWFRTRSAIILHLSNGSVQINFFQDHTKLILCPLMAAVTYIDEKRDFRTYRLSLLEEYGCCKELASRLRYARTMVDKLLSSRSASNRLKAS
Chain of Ephrin type-A receptor 4 (Homo sapiens) (P54764 whole entry): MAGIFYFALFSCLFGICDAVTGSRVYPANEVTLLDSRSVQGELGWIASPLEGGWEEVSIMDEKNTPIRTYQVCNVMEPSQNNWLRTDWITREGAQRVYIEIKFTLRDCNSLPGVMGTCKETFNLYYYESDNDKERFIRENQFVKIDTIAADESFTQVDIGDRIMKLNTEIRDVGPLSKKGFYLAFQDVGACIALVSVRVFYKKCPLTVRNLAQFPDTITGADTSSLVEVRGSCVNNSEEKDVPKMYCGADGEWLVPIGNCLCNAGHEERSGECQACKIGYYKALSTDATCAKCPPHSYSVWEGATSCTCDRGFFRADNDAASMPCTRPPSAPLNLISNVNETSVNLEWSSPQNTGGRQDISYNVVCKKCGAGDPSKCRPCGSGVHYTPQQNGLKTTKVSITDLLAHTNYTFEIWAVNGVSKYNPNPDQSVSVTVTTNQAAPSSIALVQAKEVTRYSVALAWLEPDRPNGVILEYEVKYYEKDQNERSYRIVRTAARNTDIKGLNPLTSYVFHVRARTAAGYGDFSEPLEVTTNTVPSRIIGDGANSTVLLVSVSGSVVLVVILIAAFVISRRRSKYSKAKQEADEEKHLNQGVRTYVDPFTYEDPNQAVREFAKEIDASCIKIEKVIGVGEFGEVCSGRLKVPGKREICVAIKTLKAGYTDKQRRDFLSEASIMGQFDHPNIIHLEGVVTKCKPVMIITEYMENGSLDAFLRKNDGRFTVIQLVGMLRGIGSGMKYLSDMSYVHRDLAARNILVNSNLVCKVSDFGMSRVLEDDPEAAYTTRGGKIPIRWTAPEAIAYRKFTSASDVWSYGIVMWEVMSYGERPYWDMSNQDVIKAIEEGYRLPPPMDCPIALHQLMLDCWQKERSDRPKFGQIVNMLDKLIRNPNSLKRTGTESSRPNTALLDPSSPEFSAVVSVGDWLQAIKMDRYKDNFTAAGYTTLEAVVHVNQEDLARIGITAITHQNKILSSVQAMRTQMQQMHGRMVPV

On to `CS(=O)(=O)c1cccc(Nc2nccc(-c3sc(N4CCOCC4)nc3-c3cccc(NS(=O)(=O)c4c(F)cccc4F)c3)n2)c1`, for which the inhibition (as a rule, the drop in the measured response relative to a control, in per cent) in experiment [1] stood at 70.5%; in experiment [2] it was 10.1%; in experiment [3] it was 26.8%; in experiment [4] it was 5.27%; in experiment [5] it was 18.2%; in experiment [6], 98%. Moreover, the inhibition in [7] came to 25%; in experiment [8], 83%; in experiment [9], 69.6%.
Turning to `CC(C)(C)c1cc(NC(=O)Nc2ccc(Oc3ccncc3)cc2)no1`, the inhibition was 97% in experiment [1]; 22.6% in experiment [2]; 15.8% in [3]; 1.09% in [4]; 54.2% in [5]; 99.2% in experiment [6]. For the same molecule, the results for the inhibition in experiment [7], in experiment [8] and in experiment [9] were -0.31%, 83.8% and -8.74%, respectively.
Consider `COCCNC(=O)c1ccc2c(c1)nc(-c1cnc(-c3ccc(Cl)cc3)[nH]1)n2CCOC`, for which the inhibition is 14.3% in [1]; 3.1% in experiment [2]; 28% in experiment [3]; -0.52% in experiment [4]; 12.7% in experiment [5]; 36% in experiment [6]. Moreover, the inhibition was -4.89% in experiment [7], 6.56% in experiment [8] and -7.32% in experiment [9].
